These results are taken from PMC3093256, “Synthesis of 1-Substituted Carbazolyl-1,2,3,4-tetrahydro- and Carbazolyl-3,4-dihydro-β-carboline Analogs as Potential Antitumor Agents” (Marine Drugs, 2011).

Values after ≈ are worked out from the molar mass of the structure shown.

Series [1] deals with T1, human DNA topoisomerase I (Homo sapiens, UniProt P11387).
T1 construct: purchased TopoGen
T1 sequence (P11387 1-765): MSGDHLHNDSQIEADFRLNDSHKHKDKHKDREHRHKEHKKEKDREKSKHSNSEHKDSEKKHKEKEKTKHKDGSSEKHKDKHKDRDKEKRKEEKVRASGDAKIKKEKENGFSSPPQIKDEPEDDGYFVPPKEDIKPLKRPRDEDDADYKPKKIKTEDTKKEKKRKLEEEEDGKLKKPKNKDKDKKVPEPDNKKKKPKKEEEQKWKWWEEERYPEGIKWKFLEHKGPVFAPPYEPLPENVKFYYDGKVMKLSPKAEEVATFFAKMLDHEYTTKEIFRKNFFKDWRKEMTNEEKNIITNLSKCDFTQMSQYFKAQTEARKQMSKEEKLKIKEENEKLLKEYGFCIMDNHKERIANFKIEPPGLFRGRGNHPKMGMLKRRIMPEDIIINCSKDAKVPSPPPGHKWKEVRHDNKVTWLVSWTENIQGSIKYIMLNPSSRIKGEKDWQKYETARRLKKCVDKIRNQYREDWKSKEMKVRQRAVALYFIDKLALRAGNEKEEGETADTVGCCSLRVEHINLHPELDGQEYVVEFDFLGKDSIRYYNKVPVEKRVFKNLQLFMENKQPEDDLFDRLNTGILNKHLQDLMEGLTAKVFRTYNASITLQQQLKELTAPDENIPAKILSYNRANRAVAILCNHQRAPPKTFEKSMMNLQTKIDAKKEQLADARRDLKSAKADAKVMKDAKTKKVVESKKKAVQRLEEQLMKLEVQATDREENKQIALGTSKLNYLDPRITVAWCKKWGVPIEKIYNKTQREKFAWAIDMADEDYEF
Kind of series: Relaxation assay of topoisomerase I (supercoiled pBR322). The series is classed as biochemical. The following applies: five concentrations 5, 10, 25, 50 and 100 μg/mL; read-out: Inhibition of DNA topoisomerase I IC50 (converted). The protocol: (§1) Topoisomerases I and II (topo I and II) assays were measured by assessing relaxation of supercoiled pBR322 plasmid DNA according to [24]. […] In summary, topo I (TopoGen) was mixed with the test sample and 10° volume of assay buffer (100 mM Tris-HCl, 10 mM EDTA, 1.5 M NACl, 1.0% BSA, […], and 50% glycerol), and then supercoiled DNA (pBR322) was added. In topo II assay, the mixture contained test sample and buffer including 50 mM Tris-HCl, 120 mM KCl, 10 mM MgCl2, 0.5 mM ATP, 0.5 mM dithiothreitol, 2 μg BSA, pBR322 plasmid DNA (0.25 μg), and 3U of topo II (TopoGen) in final volume of 20 μL. After incubation of topo I or topo II mixture for 30 min at 37 °C, 2 λ 10% SDS and 2.5 λ proteinase K were added for 1 h. The reaction mixtures were electrophoresed on a 2% agarose gel (50 V, 20 min; 100 V, 30 min; 110 V, 30 min) and stained with ethidium bromide. Finally, by a densitometer of ImageMaster® (Fujifilm thermal imaging system, FTI-500), the gels were directly scanned and the area representing supercoiled DNA was calculated.

The test system of the next series is Hepa (human hepatoma). The series is described as follows: Cytotoxicity assay, Hepa cells. The series is classed as cell-based. The following applies: 72 h, 3 days incubation, by interpolation. The protocol: (§2) The cytotoxic activities of compounds against KB (human mouth epidermoid carcinoma), DLD (human colon adenocarcinoma), NCI-H661 (human lung large cell carcinoma), Hepa (human hepatoma), and HepG2/A2 (human hepatoblastoma) cells were assayed by the […] assay as previously described. The cells for assay were cultured in RPMI-1640 medium supplemented with […] in an incubator at 37 °C. The cytotoxicity assay depends on the binding of methylene blue to fixed monolayers of cells at pH 8.5, washing the monolayer, and releasing the dye by lowering the pH value. Samples and control standard drugs were prepared at a concentration of 1, 10, 40, and 100 μg/mL. After seeding 2880 cells/well in a 96-well microplate for 3 h, 20 μL of sample or standard agent was placed in each well and incubated at 37 °C for 3 days. After removing the medium from the microplates, the cells were fixed with 10% formaldehyde in 0.9% saline for 30 min, then dyed with 1% (w/v) methylene blue in 0.01 M borate-buffer (100 μL/well) for 30 min. The 96-well plate was dipped into a 0.01 M borate-buffer solution four times in order to remove the dye. Then, 100 μL/well of EtOH-0.1 M HCl (1:1) was added as a dye eluting solvent, and the absorbance was measured on a microtiter plate reader (Dynatech, MR 7000) at a wavelength of 650 nm. […] Doxorubicin was used as a standard compound.

The test system of series [2] is HepG2/A2 (human hepatoma). Kind of series: Cytotoxicity assay, HepG2/A2 cells. The following applies: Homo sapiens, 72 h; HepG2/A2 cells, 3 days incubation, by interpolation. The series is classed as cell-based. The protocol:
as §2

Series [3] has as its system NCI-H661 (human lung large cell carcinoma). Kind of series: Cytotoxicity assay, NCI-H661 cells. The series is classed as cell-based. The conditions noted are these: 72 h, 3 days incubation, by interpolation. The protocol: as §2
The subject of series [4] is KB (human mouth epidermoid carcinoma). The series is described as follows: Cytotoxicity assay, KB cells. The series is classed as cell-based. The following applies: 72 h, 3 days incubation, by interpolation. As to the method: as §2
The test system of series [5] is DLD (human colon adenocarcinoma). Kind of series: Cytotoxicity assay, DLD cells. The series is classed as cell-based. The following applies: Homo sapiens, 72 h, 3 days incubation, by interpolation. As to the method:
as §2

The target in series [6] is T2, human DNA topoisomerase II (Homo sapiens, UniProt P11388).
T2 construct: purchased TopoGen
Kind of series: Relaxation assay of topoisomerase II (supercoiled pBR322). The series is classed as biochemical. The conditions noted are these: for IC50: five concentrations 5, 10, 25, 50 and 100 μg/mL, read-out: Inhibition of DNA topoisomerase II IC50 (converted). As to the method: as §1

Another series deals with human tumor cell lines. The series is described as follows: Cytotoxicity assay, tumor cell panel (cell line not specified). The conditions noted are these: positive control. The series is classed as cell-based. The protocol:
The cytotoxic activities of compounds against KB (human mouth epidermoid carcinoma), DLD (human colon adenocarcinoma), NCI-H661 (human lung large cell carcinoma), Hepa (human hepatoma), and HepG2/A2 (human hepatoblastoma) cells were assayed by the MTT{3-(4,5-dimethylthiazole-2-yl)-2,5-diphenyltetrazolium bromide} colorimetric assay as previously described. The cells for assay were cultured in RPMI-1640 medium supplemented with […] in an incubator at 37 °C. The cytotoxicity assay depends on the binding of methylene blue to fixed monolayers of cells at pH 8.5, washing the monolayer, and releasing the dye by lowering the pH value. Samples and control standard drugs were prepared at a concentration of 1, 10, 40, and 100 μg/mL. After seeding 2880 cells/well in a 96-well microplate for 3 h, 20 μL of sample or standard agent was placed in each well and incubated at 37 °C for 3 days. After removing the medium from the microplates, the cells were fixed with 10% formaldehyde in 0.9% saline for 30 min, then dyed with 1% (w/v) methylene blue in 0.01 M borate-buffer (100 μL/well) for 30 min. The 96-well plate was dipped into a 0.01 M borate-buffer solution four times in order to remove the dye. Then, 100 μL/well of EtOH-0.1 M HCl (1:1) was added as a dye eluting solvent, and the absorbance was measured on a microtiter plate reader (Dynatech, MR 7000) at a wavelength of 650 nm. […]

T2 sequence (P11388 whole entry): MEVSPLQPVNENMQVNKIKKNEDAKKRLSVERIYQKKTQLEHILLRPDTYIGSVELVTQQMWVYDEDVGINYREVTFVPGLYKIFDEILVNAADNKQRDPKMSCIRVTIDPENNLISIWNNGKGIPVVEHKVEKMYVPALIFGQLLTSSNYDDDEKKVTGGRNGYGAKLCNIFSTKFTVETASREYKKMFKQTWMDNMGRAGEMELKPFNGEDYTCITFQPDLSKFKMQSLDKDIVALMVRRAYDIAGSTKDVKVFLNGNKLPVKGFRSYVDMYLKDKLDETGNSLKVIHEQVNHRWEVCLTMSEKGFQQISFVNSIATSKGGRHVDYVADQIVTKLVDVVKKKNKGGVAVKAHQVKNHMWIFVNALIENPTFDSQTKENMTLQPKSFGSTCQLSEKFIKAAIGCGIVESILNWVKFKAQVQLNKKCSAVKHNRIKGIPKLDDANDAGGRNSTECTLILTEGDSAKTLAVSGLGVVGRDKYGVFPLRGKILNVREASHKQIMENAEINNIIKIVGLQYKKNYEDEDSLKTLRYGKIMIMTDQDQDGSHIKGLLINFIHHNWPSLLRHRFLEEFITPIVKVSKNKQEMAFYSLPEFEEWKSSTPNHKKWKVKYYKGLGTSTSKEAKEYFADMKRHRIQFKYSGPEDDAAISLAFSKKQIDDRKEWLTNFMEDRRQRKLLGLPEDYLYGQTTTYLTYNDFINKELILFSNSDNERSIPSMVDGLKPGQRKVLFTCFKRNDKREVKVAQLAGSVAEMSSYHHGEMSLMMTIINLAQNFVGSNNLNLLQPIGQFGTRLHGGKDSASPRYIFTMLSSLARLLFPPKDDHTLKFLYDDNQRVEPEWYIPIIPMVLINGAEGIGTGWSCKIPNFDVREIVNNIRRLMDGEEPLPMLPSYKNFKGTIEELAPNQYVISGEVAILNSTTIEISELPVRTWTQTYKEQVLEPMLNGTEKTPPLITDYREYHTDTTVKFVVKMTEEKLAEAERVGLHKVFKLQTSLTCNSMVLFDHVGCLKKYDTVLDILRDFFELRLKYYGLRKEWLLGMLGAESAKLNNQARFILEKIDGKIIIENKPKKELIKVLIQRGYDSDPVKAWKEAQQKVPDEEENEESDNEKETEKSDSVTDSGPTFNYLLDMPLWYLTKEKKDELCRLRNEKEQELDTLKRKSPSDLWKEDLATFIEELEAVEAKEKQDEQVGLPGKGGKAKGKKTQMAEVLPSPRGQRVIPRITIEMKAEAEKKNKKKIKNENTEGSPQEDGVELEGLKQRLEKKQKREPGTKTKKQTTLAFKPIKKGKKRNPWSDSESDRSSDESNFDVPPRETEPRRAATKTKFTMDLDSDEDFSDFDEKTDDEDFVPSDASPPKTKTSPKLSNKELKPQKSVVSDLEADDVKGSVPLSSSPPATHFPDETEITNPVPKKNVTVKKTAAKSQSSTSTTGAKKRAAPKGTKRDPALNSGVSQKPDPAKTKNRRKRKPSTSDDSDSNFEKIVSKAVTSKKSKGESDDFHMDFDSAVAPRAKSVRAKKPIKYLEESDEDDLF

For `CCCCCCCCCCn1c2ccccc2c2cc(C3=NCCc4c3[nH]c3ccccc43)ccc21` [Compound 14, 1-(9′-Decyl-3′-carbazolyl)-3,4-dihydro-β-carboline], the melting point (in general, the temperature, or range, at which the solid turns liquid) is 78 to 80 °C. The IC50 – broadly, the concentration needed to halve the response being measured – in series [1] is over 210 µM. Further, the IC50 in the series on Hepa (human hepatoma) was over 20 µg/mL. In series [2], this compound yielded an IC50 of over 60 µg/mL. This compound also returned a 50% inhibitory concentration (IC50) in [3] of over 20 µg/mL. Moreover, the 50% inhibitory concentration (IC50) in series [4] was over 20 µg/mL. The 50% inhibitory concentration (IC50) in series [5] was over 20 µg/mL. Moreover, the IC50 in [6] was 39.9 µM.

Consider `CCCCCCCCCCCCCCCCn1c2ccccc2c2cc(C3NCCc4c3[nH]c3ccccc43)ccc21` (stereo not drawn) [Compound 15, 1-(9′-Hexadecyl-3′-carbazolyl)-1,2,3,4-tetrahydro-β-carboline], for which the melting point fell in the range of 111 to 113 °C. For the same compound, in series [1], the IC50 was over 178 µM. Further, in the series with Hepa (human hepatoma), the half-inhibitory concentration (IC50) is over 20 µg/mL. In series [2], this compound gave an IC50 of over 60 µg/mL. In addition, the concentration for half-maximal inhibition (IC50) in series [3] is over 20 µg/mL. For the same compound, the concentration for half-maximal inhibition (IC50) in [4] was over 20 µg/mL. The compound also displayed an IC50 in series [5] of over 20 µg/mL. Moreover, the IC50 in [6] was over 178 µM.

On to `CCCCCCCCCCCCCCCCn1c2ccccc2c2cc(C3=NCCc4c3[nH]c3ccccc43)ccc21` [Compound 16, 1-(9′-Hexadecyl-3′-carbazolyl)-3,4-dihydro-β-carboline], for which the melting point fell in the range of 90 to 92 °C. Also, the IC50 in series [1] is over 179 µM. Further, the half-maximal inhibitory concentration (IC50) in the series on Hepa (human hepatoma) was over 20 µg/mL. In series [2], the IC50 is over 60 µg/mL. Further, the IC50 in series [3] was over 20 µg/mL. The compound further came in with a 50% inhibitory concentration (IC50) in [4] of over 20 µg/mL. In series [5], this compound had a half-maximal inhibitory concentration (IC50) of over 20 µg/mL. Moreover, in series [6], the IC50 was over 179 µM.

In the case of `CCCCCCCCCCCCCCCCCCCCn1c2ccccc2c2cc(C3NCCc4c3[nH]c3ccccc43)ccc21` (stereo not drawn) [Compound 17, 1-(9′-Eicosyl-3′-carbazolyl)-1,2,3,4-tetrahydro-β-carboline], the half-inhibitory concentration (IC50) is over 162 µM in series [1]; over 20 µg/mL in the series with Hepa (human hepatoma); over 60 µg/mL in series [2]; over 20 µg/mL in series [3]; over 20 µg/mL in series [4]; over 20 µg/mL in [5]. Further, the IC50 in [6] is over 162 µM.

`CCCCCCCCCCCCCCCCCCCCn1c2ccccc2c2cc(C3=NCCc4c3[nH]c3ccccc43)ccc21` [Compound 18, 1-(9′-Eicosyl-3′-carbazolyl)-3,4-dihydro-β-carboline] returned a melting point of 91 to 93 °C. For the same compound, the IC50 in series [1] was over 162 µM. Further, the IC50 in the series on Hepa (human hepatoma) was over 20 µg/mL. Besides, the IC50 in series [2] was over 60 µg/mL. This compound also displayed a 50% inhibitory concentration (IC50) in series [3] of over 20 µg/mL. The compound also showed an IC50 in series [4] of over 20 µg/mL. The compound further had a half-maximal inhibitory concentration (IC50) in [5] of over 20 µg/mL. Besides, the “inhibition of DNA topoisomerase II (in words)” value in series [6] (compared with etoposide) is given as “great activity”. Further, in series [6], the half-maximal inhibitory concentration (IC50) is 9.09 µM.

`COc1cccc2c1C(=O)c1c(O)c3c(c(O)c1C2=O)C[C@@](O)(C(=O)CO)C[C@@H]3O[C@H]1C[C@H](N)[C@H](O)[C@H](C)O1` [Doxorubicin] displayed a half-maximal inhibitory concentration (IC50) with human tumor cell lines of 0.1 µg/mL (≈ 0.184 µM).
